For test [1], the system named is SK-BR-3 cells (HER2 overexpressing cell line). The experiment in a line: SK-BR-3 cell proliferation inhibitory activity (CellTiter-Glo, 120 hours). It is filed as cell-based. To be noted: Homo sapiens. The method, then: (§1) To evaluate the cell proliferation inhibitory activity of the compound according to the present invention on HER2 and EGFR kinases, the following method was performed using HER2 overexpressing cell lines (SK-BR-3, BT-474, and N-87) and EGFR expressing cell line (HaCaT).
(§2) McCOY'S 5A supplemented with 10% FBS was used for SK-BR-3 cells, RPMI-1640 medium supplemented with 20% FBS was used for BT-474 cancer cells, and RPMI-1640 medium supplemented with 10% FBS was used for N-87 cancer cells. DMEM supplemented with 10% FBS was used for HaCaT cells.
(§3) For SK-BR-3 cells, 5000 cells were aliquoted into each well of a white clear bottom 96 well plate (Corning) 48 hours before treatment with the compounds of Examples. For BT-474 cells, 5000 cells were aliquoted into each well of a white clear bottom 96 well plate (Corning) 48 hours before treatment with the compounds of Examples. For N-87 cells, 5000 cells were aliquoted into each well of a white clear bottom 96 well plate (Corning) 24 hours before treatment with the compounds of Examples. For HaCaT cells, 3000 cells were aliquoted into each well of a white clear bottom 96 well plate (Corning) 24 hours before treatment with the compounds of Examples. For SK-BR-3 cells and BT-474 cells, the compounds of Examples were diluted in dimethyl sulfoxide (three-fold dilution, a total of 11 concentrations) and injected each in an amount of 1 μl to a final concentration of 0.2 nM to 10 μM. For N-87 cells, the compounds of Examples were diluted in dimethyl sulfoxide (five-fold dilution, a total of 11 concentrations) and injected each in an amount of 0.5 μl to a final concentration of […] to 5 μM. For HaCaT cells, the compounds of Examples were diluted in dimethyl sulfoxide (three-fold dilution, a total of 11 concentrations) and injected each in an amount of 0.5 μl to a final concentration of 0.8 nM to 45 μM. For the measurement of living cells, the cells were stored at room temperature for 10 minutes using CellTiter-Glo cell viability reagent (Promega) after a certain period of time (SK-BR-3: 120 hours, BT-474: 120 hours, N-87: 72 hours, and HaCaT: 72 hours) post treatment with the compounds of Examples, and the luminescence intensity thereof was measured using a reader (SynergyNeo, Biotek). Each test was repeated three times.
(§4) The result values were calculated as a cell growth rate (%) compared to those of the control group. A graph was created using the GraphPad Prism version 5.0 program, and GI50 values were calculated.

The test system of test [2] is HaCaT cells (EGFR expressing cell line). Briefly: HaCaT cell proliferation inhibitory activity (CellTiter-Glo, 72 hours). It is filed as cell-based. To be noted: Homo sapiens. Here is the method: as §1, §2, §3, §4

For the compound `C=CC(=O)N1CC(Oc2cc3c(Nc4cc(-c5cccs5)ccc4OCC)ncnc3cc2OC)C1` [Example 54, 1-(3-((4-((2-ethoxy-5-(thiophen-2-yl)phenyl)amino)-7-methoxy-quinazolin-6-yl)oxy)azetidin-1-yl)prop-2-en-1-one], the GI50 in test [1] and in test [2] was at most 150 nM throughout.

Regarding `C=CC(=O)N1CC(Oc2cc3c(Nc4cc(-c5ccco5)ccc4OCC)ncnc3cc2OC)C1` [Example 55, 1-(3-((4-((2-ethoxy-5-(furan-2-yl)phenyl)amino)-7-methoxy-quinazolin-6-yl)oxy)azetidin-1-yl)prop-2-en-1-one], the GI50 in test [1] and in test [2] was at most 150 nM each time.

Turning to `C=CC(=O)N1CC(Oc2cc3c(Nc4cc(-c5ccn6ncnc6c5)ccc4OCC)ncnc3cc2OC)C1` [Example 56, 1-(3-((4-((5-([1,2,4]triazolo [1,5-a]pyridin-7-yl)-2-ethoxyphenyl)amino)-7-methoxy-quinazolin-6-yl)oxy)azetidin-1-yl)prop-2-en-1-one], the GI50 in test [1] is 150 to 1000 nM; in test [2], above 1000 nM.

With `C=CC(=O)N1CC(Oc2cc3c(Nc4cc(-c5ccc6occc6c5)ccc4OCC)ncnc3cc2OC)C1` [Example 57, 1-(3-((4-((5-(benzofuran-5-yl)-2-ethoxyphenyl)amino)-7-methoxy-quinazolin-6-yl)oxy)azetidin-1-yl)prop-2-en-1-one], the GI50 in test [1] and in test [2] was 150 to 1000 nM throughout.

In the case of `C=CC(=O)N1CCC(Oc2cc3c(Nc4cc(-c5cccnc5)ccc4OC)ncnc3cc2OC)C1` (stereo not shown) [Example 59, 1-(3-((7-methoxy-4-((2-methoxy-5-(pyridin-3-yl)phenyl)amino)quinazolin-6-yl)oxy)pyrrolidin-1-yl)prop-2-en-1-one], the GI50 in test [1] was 150 to 1000 nM; in test [2] it was above 1000 nM.

Take `C=CC(=O)N1CCC(Oc2cc3c(Nc4cc(-c5ccc(F)cc5)ccc4OC)ncnc3cc2OC)C1` (stereo not shown) [Example 60, 1-(3-((4-((4′-fluoro-4-methoxy-[1,1′-biphenyl]-3-yl)amino)-7-methoxy-quinazolin-6-yl)oxy)pyrrolidin-1-yl)prop-2-en-1-one]: the GI50 in test [1] was at most 150 nM; in test [2], 150 to 1000 nM.

Regarding `C=CC(=O)N1CCC(Oc2cc3c(Nc4cc(-c5ccnn5C)ccc4OC)ncnc3cc2OC)C1` (stereo not shown) [Example 61, 1-(3-((7-methoxy-4-((2-methoxy-5-(1-methyl-1H-pyrazol-5-yl)phenyl)amino)quinazolin-6-yl)oxy)pyrrolidin-1-yl)prop-2-en-1-one], the results for the GI50 in test [1] and in test [2] were 150 to 1000 nM and above 1000 nM, respectively.

As to `C=CC(=O)N1CCC(Oc2cc3c(Nc4cc(-c5cccnc5)ccc4OC)ncnc3cc2OC)CC1` [Example 66, 1-(4-((7-methoxy-4-((2-methoxy-5-(pyridin-3-yl)phenyl)amino)quinazolin-6-yl)oxy)piperidin-1-yl)prop-2-en-1-one], the GI50 in test [1] and in test [2] was 150 to 1000 nM each time.

Turning to `C=CC(=O)N1CCC(Oc2cc3c(Nc4cc(-c5cccn6ccnc56)ccc4OC)ncnc3cc2OC)CC1` [Example 70, 1-(4-((4-((5-(imidazo[1,2-a]pyridin-8-yl)-2-methoxyphenyl)amino)-7-methoxy-quinazolin-6-yl)oxy)piperidin-1-yl)prop-2-en-1-one], the results for the GI50 in test [1] and in test [2] were 150 to 1000 nM and above 1000 nM, respectively.

On to `C=CC(=O)N1CCC(Oc2cc3c(Nc4cc(-c5ccc6occc6c5)ccc4OC)ncnc3cc2OC)CC1` [Example 71, 1-(4-((4-((5-(benzofuran-5-yl)-2-methoxyphenyl)amino)-7-methoxy-quinazolin-6-yl)oxy)piperidin-1-yl)prop-2-en-1-one], for which the figures for the GI50 in test [1] and in test [2] were 150 to 1000 nM and above 1000 nM, respectively.

`C=CC(=O)N1CCC(Oc2cc3c(Nc4cc(-c5coc6ccccc56)ccc4OC)ncnc3cc2OC)CC1` [Example 73, 1-(4-((4-((5-(benzofuran-3-yl)-2-methoxyphenyl)amino)-7-methoxy-quinazolin-6-yl)oxy)piperidin-1-yl)prop-2-en-1-one]: the GI50 in test [1] and in test [2] was at most 150 nM each time.

With `C=CC(=O)N1CCC(Oc2cc3c(Nc4cc(-c5ccnn5C)ccc4OC)ncnc3cc2OC)CC1` [Example 75, 1-(4-((7-methoxy-4-((2-methoxy-5-(1-methyl-1H-pyrazol-5-yl)phenyl)amino)quinazolin-6-yl)oxy)piperidin-1-yl)prop-2-en-1-one], the values for the GI50 in test [1] and in test [2] were 150 to 1000 nM and above 1000 nM, respectively.

As for `C=CC(=O)N1CCC(Oc2cc3c(Nc4cc(-c5cncs5)ccc4OC)ncnc3cc2OC)CC1` [Example 77, 1-(4-((7-methoxy-4-((2-methoxy-5-(thiazol-5-yl)phenyl)amino)quinazolin-6-yl)oxy)piperidin-1-yl)prop-2-en-1-one], the GI50 in test [1] and in test [2] was 150 to 1000 nM throughout.

For the compound `C=CC(=O)N1CCC(Oc2cc3c(Nc4cc(-c5sccc5C)ccc4OC)ncnc3cc2OC)CC1` [Example 82, 1-(4-((7-methoxy-4-((2-methoxy-5-(3-methylthiophen-2-yl)phenyl)amino)quinazolin-6-yl)oxy)piperidin-1-yl)prop-2-en-1-one], the GI50 in test [1] and in test [2] was at most 150 nM in each case.

For the compound `C=CC(=O)N1CCC(Oc2cc3c(Nc4cc(-c5cc(C)cs5)ccc4OC)ncnc3cc2OC)CC1` [Example 83, 1-(4-((7-methoxy-4-((2-methoxy-5-(4-methylthiophen-2-yl)phenyl)amino)quinazolin-6-yl)oxy)piperidin-1-yl)prop-2-en-1-one], the GI50 in test [1] and in test [2] was 150 to 1000 nM throughout.

Turning to `C=CC(=O)N1CCC(Oc2cc3c(Nc4cc(-c5ccoc5C)ccc4OC)ncnc3cc2OC)CC1` [Example 84, 1-(4-((7-methoxy-4-((2-methoxy-5-(2-methylfuran-3-yl)phenyl)amino)quinazolin-6-yl)oxy)piperidin-1-yl)prop-2-en-1-one], the GI50 in test [1] and in test [2] was at most 150 nM in each case.

As to `C=CC(=O)N1CCC(Oc2cc3c(Nc4cc(-c5cnoc5)ccc4OC)ncnc3cc2OC)CC1` [Example 85, 1-(4-((4-((5-(isoxazol-4-yl)-2-methoxyphenyl)amino)-7-methoxy-quinazolin-6-yl)oxy)piperidin-1-yl)prop-2-en-1-one], the GI50 in test [1] and in test [2] was at most 150 nM throughout.

In the case of `C=CC(=O)N1CCC(Oc2cc3c(Nc4cc(-c5cccs5)c(C)cc4OC)ncnc3cc2OC)CC1` [Example 95, 1-(4-((7-methoxy-4-((2-methoxy-4-methyl-5-(thiophen-2-yl))amino)quinazolin-6-yl)oxy)piperidin-1-yl)prop-2-en-1-one], the GI50 was 150 to 1000 nM in test [1] and at most 150 nM in test [2].

`C=CC(=O)N1CCC(Oc2cc3c(Nc4cc(-c5ccco5)c(C)cc4OC)ncnc3cc2OC)CC1` [Example 96, 1-(4-((4-((5-(furan-2-yl)-2-methoxy-4-methylphenyl)amino)-7-methoxy-quinazolin-6-yl)oxy)piperidin-1-yl)prop-2-en-1-one]: the GI50 in test [1] was 150 to 1000 nM; in test [2], at most 150 nM.

Consider `C=CC(=O)N1CCC(Oc2cc3c(Nc4cc(-c5ccco5)cnc4OC)ncnc3cc2OC)CC1` [Example 104, 1-(4-((4-((5-(furan-2-yl)-2-methoxy-pyridin-3-yl)amino)-7-methoxy-quinazolin-6-yl)oxy)piperidin-1-yl)prop-2-en-1-one], for which the GI50 in test [1] and in test [2] was at most 150 nM each time.

These data come from patent US20240246940A1, “HETEROARYL DERIVATIVE COMPOUND AND USE THEREOF” (VORONOI INC., priority 2021, published 2024).
